Experimental data: US6723751B1, “Crystalline forms of the sodium salt of 5-chloro-2-methoxy-N-(2-(4-methoxy-3-methylaminothiocarbonylaminosulfonylpenyl)ethyl)benzamide” (Aventis Pharma Deutschland GmbH, priority 1999, dated 2004)

Legend:
[1] = Solubility investigations in water; format: physicochemical; details: for Total amount of substance that could be dissolved: in 2 ml of water at 20° C. to 25° C.; for Time to go into solution: portions of 50 to 100 mg stirred into 2.0 ml of water at room temperature
Description: The substance was introduced with stirring into 2.0 ml of water at room temperature in portions of 50 to 100 mg. It went into solution in the course of a few minutes with initial clumping. In this way, a total of up to 500 mg of substance could be dissolved in 2 ml of water at 20° C to 25° C.
100 mg of the substance were introduced into 2.0 ml of water, a readily stirrable suspension being formed. […] On warming the suspension to 35° C. to 37° C., the substance went into solution within 20 minutes.
The substance was introduced with stirring into 2.0 ml of water at room temperature in portions of 50 to 100 mg. After introduction, the substance was initially present as a granular, readily stirrable solid that then went into solution in the course of a few minutes. In this way, a total of up to 360 mg of substance could be dissolved in 2 ml of water at 20° C. to 25° C.
The substance was introduced with stirring into 2.0 ml of water at room temperature in portions of 50 to 100 mg. It went into solution in the course of a few minutes with initial clumping. In this way, a total of up to 620 mg of substance could be dissolved in 2 ml of water at 20° C. to 25° C.

[2] = Hygroscopicity investigations: water vapor sorption (DVS-1 Dynamic Vapour Sorption Analyser); format: physicochemical; details: 25° C., equilibrium
Description: The water vapor sorption of the crystal modifications according to the invention was investigated at a temperature of 25° C. on substance samples of about 12 to 16 mg using a DVS-1 Dynamic Vapour Sorption Analyser from Surface Measurement Systems. The measurements were carried out in a nitrogen atmosphere whose relative humidity was altered stepwise. The weight of the sample was recorded at each relative humidity after establishment of the equilibrium, which is when a change in weight of the sample no longer took place. For a series of increasing relative humidities, the water contents of the substance samples, which were determined from the change in weight compared with the starting weights, are indicated in percent.

CNC(=S)[N-]S(=O)(=O)c1cc(CCNC(=O)c2cc(Cl)ccc2OC)ccc1OC.[Na+] [Crystal Modification 1, sodium salt of 5-chloro-2-methoxy-N-(2-(4-methoxy-3-methylaminothiocarbonylaminosulfonylphenyl)ethyl)benzamide]
Total amount of substance that could be dissolved [1]: up to 500 mg | Time to go into solution [1]: a few minutes | Water content ([2]; relative humidity 18.4 %): 0.30% | Water content ([2]; relative humidity 39.6 %): 0.65% | Water content ([2]; relative humidity 61.0 %): 1.39% | Water content ([2]; relative humidity 81.1 %): 2.04% | Water content ([2]; relative humidity 91.0 %): 5.72%

CNC(=S)[N-]S(=O)(=O)c1cc(CCNC(=O)c2cc(Cl)ccc2OC)ccc1OC.[Na+] [Crystal Modification 3, sodium salt of 5-chloro-2-methoxy-N-(2-(4-methoxy-3-methylaminothiocarbonylaminosulfonylphenyl)ethyl)benzamide]
Total amount of substance that could be dissolved [1]: up to 360 mg | Time to go into solution [1]: a few minutes | Water content ([2]; relative humidity 18.7 %): 0.06% | Water content ([2]; relative humidity 40.1 %): 0.21% | Water content ([2]; relative humidity 61.4 %): 0.38% | Water content ([2]; relative humidity 81.3 %): 0.65% | Water content ([2]; relative humidity 91.0 %): 0.79%

CNC(=S)[N-]S(=O)(=O)c1cc(CCNC(=O)c2cc(Cl)ccc2OC)ccc1OC.[Na+] [Crystal Modification 2, sodium salt of 5-chloro-2-methoxy-N-(2-(4-methoxy-3-methylaminothiocarbonylaminosulfonylphenyl)ethyl)benzamide]
State of solution on cooling ([1]; 100 mg in 2.0 ml of water, cooled from 35° C. to 37° C. to 20° C. to 25° C.): remained clearly dissolved | Time to go into solution on warming ([1]; 100 mg in 2.0 ml of water, suspension warmed to 35° C. to 37° C.): ≤ 20 min | Dissolution of 100 mg in 2.0 ml of water ([1]; after stirring at 20° C. to 25° C. for 2 h): a clear solution was still not formed | Water content ([2]; relative humidity 18.5 %): 0.04% | Water content ([2]; relative humidity 39.9 %): 0.06% | Water content ([2]; relative humidity 61.5 %): 0.08% | Water content ([2]; relative humidity 81.9 %): 0.10% | Water content ([2]; relative humidity 91.7 %): 0.13%

CNC(=S)[N-]S(=O)(=O)c1cc(CCNC(=O)c2cc(Cl)ccc2OC)ccc1OC.[Na+] [Crystal Modification 4, sodium salt of 5-chloro-2-methoxy-N-(2-(4-methoxy-3-methylaminothiocarbonylaminosulfonylphenyl)ethyl)benzamide]
Total amount of substance that could be dissolved [1]: up to 620 mg | Time to go into solution [1]: a few minutes
